Measured values: patent US20240391902A1, “Crystalline Form of Compound” (Shenzhen Forward Pharmaceuticals Co., Limited, priority 2020, published 2024)
“Also recorded” adds a separate entry of the source.

Legend:
Assay type in all cases: physicochemical
Dynamic solubility test = details: for dynamic solubility: room temperature, feeding concentration 10 mg/mL
Experimental: Determination method: According to a feeding concentration of 10 mg/mL, about 50 mg of the sample were weighed and added to 5 mL of the corresponding medium, and the sample was dissolved by rotating at […] at room temperature.

[1] = Solid storage stability test; details: for chemical and physical stability after storage: solid/25° C./60% RH/open/1 week and/or solid/60° C./closed container/1 week
Experimental: Each amorphous salt solid was weighed (two 2 mg samples were weighed for purity testing after solid storage stability study, and one 10 mg sample was weighed for XRPD testing after solid storage stability study) and placed in a glass vial. In a 25° C./60% RH solid storage stability test, the amorphous salt solid was placed in a 25° C./60% RH constant temperature and humidity chamber, and placed in the dark for 1 week (i.e. “solid/25° C./60% RH/open/1 week”), and in a 60° C. solid storage stability test, the amorphous salt solid was sealed in an oven at 60° C. and heated for 1 week in the dark (i.e. “solid/60° C./closed container/1 week”). Then the sample was taken out for purity testing, crystal form detection and appearance observation, respectively.

[2] = Solid solubility test (2 h and 24 h); details: Test ES4: FaSSIF-V1 (pH 6.5); for Solubility measured at 2 h: 37° C., based on free base
Experimental: 5 samples were weighed for each amorphous salt solid (equivalent to 20 mg of free base), and 10 mL of the following solvents were respectively added: 0.1N HCl solution (pH 1.0), 50 mM phosphate buffer (pH 4.5), FeSSIF-V1 (pH 5.0), FaSSIF-V1 (pH 6.5) and SGF (pH 2.0), and stirred at 37° C. for 2 h. The suspension was then centrifuged at 37° C., the supernatant was measured for solubility by HPLC, and the solid fraction was measured for XRPD. The target solubility was at least 2 mg (based on free base)/mL.

[3] = Test BS1: solid/25° C./60% RH/open/1 week
[4] = Test BS2: solid/60° C./closed container/1 week

C=CC(=O)Nc1cc(Nc2ncnc(-c3cn(C)c4ccccc34)n2)c(OC)cc1N(C)CCN(C)C [Example 24]
dynamic solubility (Dynamic solubility test; FaSSIF, 0.5 h, listed as crystaline form IV-C of maleate salt): 6100 µg/mL | dynamic solubility (Dynamic solubility test; FaSSIF, 1 h, listed as crystaline form IV-C of maleate salt): 6200 µg/mL | dynamic solubility (Dynamic solubility test; SGF, 0.5 h, listed as crystaline form IV-C of maleate salt): >10000 µg/mL | dynamic solubility (Dynamic solubility test; SGF, 1 h, listed as crystaline form IV-C of maleate salt): >10000 µg/mL | dynamic solubility (Dynamic solubility test; SGF, 2 h, listed as crystaline form IV-C of maleate salt): >10000 µg/mL | dynamic solubility (Dynamic solubility test; SGF, 4 h, listed as crystaline form IV-C of maleate salt): >10000 µg/mL | dynamic solubility (Dynamic solubility test; SGF, 24 h, listed as crystaline form IV-C of maleate salt): >10000 µg/mL

C=CC(=O)Nc1cc(Nc2ncnc(-c3cn(C)c4ccccc34)n2)c(OC)cc1N(C)CCN(C)C [Example 23]
dynamic solubility (Dynamic solubility test; FaSSIF, 0.5 h, listed as crystaline form III-A of hydrochloride salt): 5300 µg/mL | dynamic solubility (Dynamic solubility test; FaSSIF, 1 h, listed as crystaline form III-A of hydrochloride salt): 5200 µg/mL | dynamic solubility (Dynamic solubility test; FaSSIF, 2 h, listed as crystaline form III-A of hydrochloride salt): 5000 µg/mL | dynamic solubility (Dynamic solubility test; FaSSIF, 4 h, listed as crystaline form III-A of hydrochloride salt): 5000 µg/mL | dynamic solubility (Dynamic solubility test; FaSSIF, 24 h, listed as crystaline form III-A of hydrochloride salt): 8200 µg/mL | dynamic solubility (Dynamic solubility test; SGF, 0.5 h, listed as crystaline form III-A of hydrochloride salt): >10000 µg/mL | dynamic solubility (Dynamic solubility test; SGF, 1 h, listed as crystaline form III-A of hydrochloride salt): >10000 µg/mL | dynamic solubility (Dynamic solubility test; SGF, 2 h, listed as crystaline form III-A of hydrochloride salt): >10000 µg/mL | dynamic solubility (Dynamic solubility test; SGF, 4 h, listed as crystaline form III-A of hydrochloride salt): >10000 µg/mL | dynamic solubility (Dynamic solubility test; SGF, 24 h, listed as crystaline form III-A of hydrochloride salt): >10000 µg/mL

C=CC(=O)Nc1cc(Nc2ncnc(-c3cn(C)c4ccccc34)n2)c(OC)cc1N(C)CCN(C)C [Example 7]
Color [1, 3]: slight color change | Color [1, 4]: no color change | Morphology (XRPD crystallinity) [1, 4]: amorphous (FIG. 98), | Morphology (agglomeration, appearance) [1, 4]: no agglomeration | chemical and physical stability after storage ([1]; listed as 2 eq. besylate salt): physically unstable | chemical and physical stability after storage ([1]; listed as amorphous 2 eq. besylate salt): physically unstable | physical and chemical stability (in words) ([1]; solid/25° C./60% RH/open/1 week, listed as amorphous 2 eq. besylate salt): slight color change and showed significant hygroscopicity (caking and fusion to a glassy state) | physical and chemical stability (in words) ([1]; solid/60° C./closed container/1 week, listed as amorphous 2 eq. besylate salt): good physical and chemical stability | pH measured at 2 h [2]: (6.1) | Solubility measured at 2 h [2]: >2000 µg/mL

C=CC(=O)Nc1cc(Nc2ncnc(-c3cn(C)c4ccccc34)n2)c(OC)cc1N(C)CCN(C)C [Example 9]
Color [1, 3]: slight color change | Morphology (XRPD crystallinity) [1, 3]: amorphous (FIG. 101), | Morphology (agglomeration, appearance) [1, 3]: agglomeration (FIG. 102) | Color [1, 4]: no color change | Morphology (XRPD crystallinity) [1, 4]: low crystallinity | chemical and physical stability after storage ([1]; listed as 1 eq. maleate salt): chemically unstable; also recorded: physically unstable | chemical and physical stability after storage ([1]; listed as amorphous 1 eq. maleate salt): chemically unstable; also recorded: physically unstable | physical and chemical stability (in words) ([1]; solid/25° C./60% RH/open/1 week, listed as amorphous 1 eq. maleate salt): slight color change and showed a certain hygroscopicity (agglomeration) | physical and chemical stability (in words) ([1]; solid/60° C./closed container/1 week, listed as amorphous 1 eq. maleate salt): transformed from amorphous to a low crystallinity | pH measured at 2 h [2]: (6.1) | Solubility measured at 2 h [2]: >2000 µg/mL

C=CC(=O)Nc1cc(Nc2ncnc(-c3cn(C)c4ccccc34)n2)c(OC)cc1N(C)CCN(C)C [Example 5]
Morphology (XRPD crystallinity) [1, 3]: low crystallinity (FIG. | Morphology (agglomeration, appearance) [1, 3]: 94), agglomeration | Morphology (XRPD crystallinity) [1, 4]: amorphous (FIG. 94), | Morphology (agglomeration, appearance) [1, 4]: partial agglomeration | chemical and physical stability after storage ([1]; listed as 2 eq. mesylate salt): physically unstable | chemical and physical stability after storage ([1]; listed as amorphous 2 eq. mesylate salt): physically unstable | physical and chemical stability (in words) ([1]; solid/25° C./60% RH/open/1 week, listed as amorphous 2 eq. mesylate salt): transformed from amorphous to a low crystallinity and showed a certain hygroscopicity (agglomeration) | physical and chemical stability (in words) ([1]; solid/60° C./closed container/1 week, listed as amorphous 2 eq. mesylate salt): a certain hygroscopicity (partial agglomeration) | pH measured at 2 h [2]: (6.2)

C=CC(=O)Nc1cc(Nc2ncnc(-c3cn(C)c4ccccc34)n2)c(OC)cc1N(C)CCN(C)C [Example 22]
dynamic solubility (Dynamic solubility test; FaSSIF, 0.5 h, listed as crystaline form II-A of mesylate salt): 6600 µg/mL | dynamic solubility (Dynamic solubility test; FaSSIF, 1 h, listed as crystaline form II-A of mesylate salt): 6200 µg/mL | dynamic solubility (Dynamic solubility test; FaSSIF, 2 h, listed as crystaline form II-A of mesylate salt): 7000 µg/mL | dynamic solubility (Dynamic solubility test; FaSSIF, 4 h, listed as crystaline form II-A of mesylate salt): 6900 µg/mL | dynamic solubility (Dynamic solubility test; FaSSIF, 24 h, listed as crystaline form II-A of mesylate salt): 9900 µg/mL | dynamic solubility (Dynamic solubility test; SGF, 0.5 h, listed as crystaline form II-A of mesylate salt): >10000 µg/mL | dynamic solubility (Dynamic solubility test; SGF, 1 h, listed as crystaline form II-A of mesylate salt): >10000 µg/mL | dynamic solubility (Dynamic solubility test; SGF, 2 h, listed as crystaline form II-A of mesylate salt): >10000 µg/mL | dynamic solubility (Dynamic solubility test; SGF, 4 h, listed as crystaline form II-A of mesylate salt): >10000 µg/mL | dynamic solubility (Dynamic solubility test; SGF, 24 h, listed as crystaline form II-A of mesylate salt): >10000 µg/mL | solubility (Dynamic solubility test; water, SGF, FaSSIF and FeSSIF, thermodynamic from solid, water, SGF, FaSSIF and FeSSIF, all time points, read-out: dynamic solubility in water, SGF, FaSSIF and FeSSIF (conclusion)): > 4000 µg/mL

C=CC(=O)Nc1cc(Nc2ncnc(-c3cn(C)c4ccccc34)n2)c(OC)cc1N(C)CCN(C)C [Example 8]
Color [1, 3]: no color change | Color [1, 4]: no color change | Morphology (XRPD crystallinity) [1, 4]: amorphous (FIG. 100), | Morphology (agglomeration, appearance) [1, 4]: no agglomeration | chemical and physical stability after storage ([1]; listed as 1 eq. esylate salt): physically unstable | chemical and physical stability after storage ([1]; listed as amorphous 1 eq. esylate salt): physically unstable | physical and chemical stability (in words) ([1]; solid/25° C./60% RH/open/1 week, listed as amorphous 1 eq. esylate salt): significant hygroscopicity (caking and fusion to a glassy state) | physical and chemical stability (in words) ([1]; solid/60° C./closed container/1 week, listed as amorphous 1 eq. esylate salt): good physical and chemical stability | pH measured at 2 h [2]: (6.4) | Solubility measured at 2 h [2]: >2000 µg/mL

C=CC(=O)Nc1cc(Nc2ncnc(-c3cn(C)c4ccccc34)n2)c(OC)cc1N(C)CCN(C)C [Example 6]
Morphology (XRPD crystallinity) [1, 3]: amorphous (FIG. 96), | Morphology (XRPD crystallinity) [1, 4]: amorphous (FIG. 96), | chemical and physical stability after storage ([1]; listed as 1 eq. besylate salt): chemically unstable | chemical and physical stability after storage ([1]; listed as amorphous 1 eq. besylate salt): chemically unstable | physical and chemical stability (in words) ([1]; solid/60° C./closed container/1 week, listed as amorphous 1 eq. besylate salt): good physical and chemical stability
